The results in this text go back to patent US20040039266A1, “Apparatus and method for measurement of biological structures” (priority 2000, published 2004).

In one assay the test system is NOS. Nature of the assay: Functional detection of NOS transfection in mouse mesenteric arteries by absorption spectroscopy. The source says:
Mouse 1st order mesenteric arteries are dissected out and maintained in Optimem I supplemented with 10% foetal bovine serum. cDNAs (for NOS) inserted into appropriate plasmids are mixed with LipofectAMINE according to the manufacturers instructions. Two arteries are set up in separate perfusion chambers; the first tissue (A) acts as a control (receives LipofectAMINE and plasmids without the cDNA insert), the second tissue (B) receives LipofectAMINE with plasmids containing the NOS cDNA insert. The arteries are exposed to the appropriate transfection solutions for 8 hours.
After 8 hours, the unit switches automatically and perfuses the vessels with normal PSS. Analysis of the lumen diameter via absorption spectroscopy begins, providing continual information on the contractile state of the artery.
Functional detection of NOS activity is achieved by way of a two-stage protocol. Firstly, concentration-response curves to ACh are conducted in both vessels. During the concentration-response curve, changes in the state of the blood vessels are continuously monitored by absorption spectroscopy. ACh selectively activates expressed NOS synthase and causes release of the vasodilator nitric oxide (NO). […] The control vessel should display little vasodilation to ACh, as NOS cDNA was not transfected in this tissue.
Both vessels are then perfused with normal PSS for thirty minutes. […]

The subject of assay [1] is 3rd order mesenteric arteries. The experiment in a line: Absorption spectroscopy of agonist-induced vasoconstriction in pressurised rat mesenteric arteries. As to conditions: increasing concentrations; normotensive male Wistar rat arteries, 60 mmHg, 37° C., PSS. As for the experimental part: 3rd order mesenteric arteries from normotensive male Wistar rats were set up in two perfusion chambers in normal physiological salt solution (PSS), at 37° C. and gassed with 95% O2/5% CO2. The vessels were pressurised to 60 mmHg and allowed to equilibrate for 30 minutes. Thereafter, one vessel acted as a control and the other vessel received increasing concentrations of the thromboxane A2 mimetic, U46619. Transmission spectra were recorded at one second intervals and analysed according to the methods described above.
The optical extinction model described above was used to accurately and continuously measure lumen diameter.

With `CC(=O)OCC[N+](C)(C)C` [ACh], the “response of NOS cDNA-transfected blood vessel to ACh” value in the assay on NOS (concentration-response curve, NOS-knockout mouse 1st order mesenteric artery after 8 hours transfection) is “vasodilation”.

In the case of `COC(=O)[C@@H](N)CCCNC(=N)N[N+](=O)[O-]` [L-NAME], the “effect on ACh responses (concentration response curve repeated in presence of inhibitor)” value in the assay on NOS (NOS cDNA-transfected mouse mesenteric artery) is given as “abolish further responses to ACh”.

Turning to `CCCCC[C@H](O)/C=C/[C@@H]1[C@@H](C/C=C\CCCC(=O)O)[C@H]2CO[C@@H]1C2` [U46619], in assay [1], the “vasoconstriction (change in lumen diameter) detected via shifts in transmission spectra” value is given as “vasoconstriction was detected”.
